Test results taken from ChEMBL document CHEMBL1201862, “PubChem BioAssay data set” (2004).
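Test compounds were applied to cells in 96-well plates for 48 hours at 5 doses. Here, GI50 denotes the concentration required for 50% inhibition of growth.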 Active and inactive are the calls of the source. No stated cut-off is given here; in the data, active = GI50 up to about 1.1 µM and inactive = higher. Non-standard residues stand in square brackets, D forms with d. Residues, ends and D or L forms follow the SMILES beside them. ξ: configuration not given here. *: point of attachment. X18 = COC1=CC(=O)N(C(=O)C(O*)C(C)C)C1Cc1ccccc1; ξNMe2Val = CC(C)C(C(=O)*)N(C)C; NMeV = CN[CH](C(=O)O)C(C)C

Columns and labels:
Experiment in all cases: growth of human tumour cells (NCI), 48 h
[1] = system: RXF 393
[2] = system: T47D
[3] = system: COLO 205
[4] = system: HCT-116
[5] = system: DLD-1
[6] = system: NCI-H23
[7] = system: SK-OV-3
[8] = system: SNB-19
[9] = system: OVCAR-5
[10] = system: LXFL 529
[11] = system: RPMI-8226
[12] = system: KM-20L2
[13] = system: DMS-114
[14] = system: Malme-3M
[15] = system: SF-295
[16] = system: PC-3
[17] = system: HOP-92
[18] = system: MDA-MB-231
[19] = system: TK-10
[20] = system: Hs-578T
[21] = system: SNB-78
[22] = system: DMS-273
[23] = system: SN12C
[24] = system: SW-620
[25] = system: HCT-15
[26] = system: DU-145
[27] = system: CCRF-CEM
[28] = system: SK-MEL-5
[29] = system: HOP-62
[30] = system: A498
[31] = system: NCI-H460
[32] = system: HL-60
[33] = system: NCI/ADR-RES
[34] = system: K562
[35] = system: UACC-62
[36] = system: SF-539
[37] = system: OVCAR-3
[38] = system: U-251
[39] = system: M14
[40] = system: OVCAR-8
[41] = system: ACHN
[42] = system: HT-29
[43] = system: EKVX
[44] = system: M19-MEL
[45] = system: OVCAR-4
[46] = system: BT-549
[47] = system: HOP-18
[48] = system: SK-MEL-28
[49] = system: CAKI-1
[50] = system: NCI-H226
[51] = system: SNB-75
[52] = system: SK-MEL-2
[53] = system: IGROV-1
[54] = system: SF-268
[55] = system: 786-0
[56] = system: HCC 2998
[57] = system: MOLT-4
[58] = system: KM12
[59] = system: A549
[60] = system: MDA-N
[61] = system: XF498
[62] = system: MDA-MB-435
[63] = system: RXF 631
[64] = system: NCI-H522
[65] = system: UACC-257
[66] = system: SR
[67] = system: UO-31
[68] = system: MCF7
[69] = system: LOX IMVI

COC1=CC(=O)N(C(=O)C(OC(=O)C2CCCN2C(=O)C2CCCN2C(=O)C(C(C)C)N(C)C(=O)C(NC(=O)C(C(C)C)N(C)C)C(C)C)C(C)C)C1Cc1ccccc1 (centres undefined) (ξNMe2Val-V[NMeV]PP-X18; configuration not given here)
GI50 [1]: 1.64 nM (active)
GI50 [2]: < 10 nM (active)
GI50 [3]: 1.63 nM (active)
GI50 [4]: 0.582 nM (active)
GI50 [5]: 1.08 nM (active)
GI50 [6]: 3.15 nM (active)
GI50 [7]: 4.85 nM (active)
GI50 [8]: 6.29 nM (active)
GI50 [9]: < 10 nM (active)
GI50 [10]: 1.19 nM (active)
GI50 [11]: 0.524 nM (active)
GI50 [12]: 1.35 nM (active)
GI50 [13]: 0.476 nM (active)
GI50 [14]: 2.7 nM (active)
GI50 [15]: 1.61 nM (active)
GI50 [16]: 1.58 nM (active)
GI50 [17]: 2.94 nM (active)
GI50 [18]: 1.46 nM (active)
GI50 [19]: 6.82 nM (active)
GI50 [20]: 0.188 nM (active)
GI50 [21]: 2.44 nM (active)
GI50 [22]: 1.03 nM (active)
GI50 [23]: 1.88 nM (active)
GI50 [24]: 0.469 nM (active)
GI50 [25]: 1.4 nM
GI50 [26]: 0.618 nM (active)
GI50 [27]: 0.309 nM (active)
GI50 [28]: 1.09 nM (active)
GI50 [29]: 4.61 nM (active)
GI50 [30]: 4.24 nM (active)
GI50 [31]: 1.58 nM (active)
GI50 [32]: 0.171 nM (active)
GI50 [33]: 23.4 nM (active)
GI50 [34]: 0.349 nM (active)
GI50 [35]: 1.89 nM (active)
GI50 [36]: 1.35 nM (active)
GI50 [37]: 0.327 nM (active)
GI50 [38]: 2.35 nM (active)
GI50 [39]: 2.7 nM (active)
GI50 [40]: 2.01 nM (active)
GI50 [41]: 9.31 nM (active)
GI50 [42]: 0.573 nM (active)
GI50 [43]: 2.42 nM (active)
GI50 [44]: 3.19 nM (active)
GI50 [45]: 8.26 nM (active)
GI50 [46]: 0.46 nM (active)
GI50 [47]: < 10 nM (active)
GI50 [48]: 3.09 nM (active)
GI50 [49]: 1.03 nM (active)
GI50 [50]: 7.73 nM (active)
GI50 [51]: 1.8 nM (active)
GI50 [52]: 0.902 nM (active)
GI50 [53]: 2.31 nM (active)
GI50 [54]: 1.89 nM (active)
GI50 [55]: 2.23 nM (active)
GI50 [56]: 2.05 nM (active)
GI50 [57]: 1.02 nM (active)
GI50 [58]: 2.38 nM (active)
GI50 [59]: 9.55 nM (active)
GI50 [60]: 0.0361 nM (active)
GI50 [61]: 0.308 nM (active)
GI50 [62]: 0.0513 nM (active)
GI50 [63]: 4.59 nM (active)
GI50 [64]: 0.347 nM (active)
GI50 [65]: 2.5 nM (active)
GI50 [66]: 0.251 nM (active)
GI50 [67]: 9.38 nM (active)
GI50 [68]: 0.24 nM (active)
GI50 [69]: 0.849 nM (active)
